The results in this text go back to patent US20250109134A1 (Ascentage Pharma (Suzhou) Co., Ltd., priority 2022, published 2025).

Structures can show the parent of a compound that is named as a salt.

Holding throughout (assay type): physicochemical
Series [1] is described as follows: XRPD characterization (crystallinity), summary evaluation. The following applies: summary of forms. An excerpt:
In the present invention, the XRPD test parameters are set as follows: […]

The nature of series [2]: Dynamic vapor sorption (DVS) hygroscopicity test. To be noted: for hygroscopic weight gain (DVS): 25° C. and 80% RH; for hygroscopicity (DVS), in words: 80% RH; for crystalline form before and after hygroscopic test (XRPD after DVS): XRPD of sample after DVS; for Evaluation results: hygroscopicity: summary of forms. An excerpt: In the present invention, the DVS test parameters are set as follows: […]

A short description of series [3]: Stability study, solid form by XRPD after open storage at high temperature / high humidity. The following applies: for change in the crystalline form after storage (XRPD), physical stability: open, 60° C., RT/92.5% RH, RT/75% RH, 40° C./75% RH, 30 days. The method, then:
In the present invention, the XRPD test parameters are set as follows:
Then, the sample flasks were opened to air (sealed with aluminum foil punctured with small holes) and placed in constant temperature and humidity cabinets at high temperature (60° C.), at room temperature and high humidity (RT/92.5% RH), at RT/75% RH, and at 40° C./75% RH for 30 days, respectively, and samples were taken at days 5, 10 and 30 for XRPD and HPLC detection.

Series [4] can be described thus: Stability study, content and related substances (TRS, total impurity content) by HPLC. The following applies: for chemical stability (HPLC, TRS total impurity content): open, 60° C., RT/92.5% RH, RT/75% RH, 40° C./75% RH, up to 30 days. The method, then: In the present invention, the HPLC (high performance liquid chromatography) test parameters are set as follows:
Then, the sample flasks were opened to air (sealed with aluminum foil punctured with small holes) and placed in constant temperature and humidity cabinets at high temperature (60° C.), at room temperature and high humidity ([…]), at RT/75% RH, and at 40° C./75% RH for 30 days, respectively, […]

Setting [5] is: 40° C./75RH %-5 d, open storage.
[6] abbreviates: 40° C./75RH %- 10 d, open storage.
[7] abbreviates: 40° C./75RH %- 30 d, open storage.
Setting [8] is: Initial, TRS = total impurity content, HPLC.

For the molecule `CC(C)N1Cc2cc(C(F)(F)F)ncc2-c2cnc(NCc3c(F)ccc4c3CCO4)n3cnc(c23)C1=O.CS(=O)(=O)O` [Methanesulfonate salt Crystalline form A], the “Evaluation results: crystallinity” value in series [1] is recorded as “High crystallinity”.

Regarding `CC(C)N1Cc2cc(C(F)(F)F)ncc2-c2cnc(NCc3c(F)ccc4c3CCO4)n3cnc(c23)C1=O` [crystalline form B of the compound of formula I], in series [2], the “hygroscopic weight gain (DVS)” value came out at 0.84% and the “hygroscopicity (DVS), in words” value was “slight hygroscopicity”. Moreover, the “change in the crystalline form after storage (XRPD), physical stability” value (“change in the crystalline form” for short) in series [3] is listed as “no change in the crystalline form”. In series [4], the “chemical stability (HPLC, TRS total impurity content)” value (“chemical stability” for short) is listed as “good chemical stability”.

`CC(C)N1Cc2cc(C(F)(F)F)ncc2-c2cnc(NCc3c(F)ccc4c3CCO4)n3cnc(c23)C1=O` [crystalline form A of the sulfate salt of the compound of fo]: in series [2], the “hygroscopic weight gain (DVS)” value is 1.43%; the “hygroscopicity (DVS), in words” value is reported as “slight hygroscopicity”; the “crystalline form before and after hygroscopic test (XRPD after DVS)” value is listed as “did not change”. Moreover, in series [3], the “change in the crystalline form” value is “no change in the crystalline form”.

As to `CC(C)N1Cc2cc(C(F)(F)F)ncc2-c2cnc(NCc3c(F)ccc4c3CCO4)n3cnc(c23)C1=O` [Crystalline form G], in series [2], the “Evaluation results: hygroscopicity” value is listed as “slight hygroscopicity”. In series [1], the “Evaluation results: crystallinity” value is listed as “High crystallinity”.

Regarding `CC(C)N1Cc2cc(C(F)(F)F)ncc2-c2cnc(NCc3c(F)ccc4c3CCO4)n3cnc(c23)C1=O.Cc1ccc(S(=O)(=O)O)cc1` [p-toluenesulfonate Crystalline form A], in series [1], the “Evaluation results: crystallinity” value is “High crystallinity”.

In the case of `CC(C)N1Cc2cc(C(F)(F)F)ncc2-c2cnc(NCc3c(F)ccc4c3CCO4)n3cnc(c23)C1=O` [crystalline form A of the hydrochloride salt of the compound], in series [2], the “hygroscopic weight gain (DVS)” value is recorded as 0.31%; the “hygroscopicity (DVS), in words” value is reported as “slight hygroscopicity”; the “crystalline form before and after hygroscopic test (XRPD after DVS)” value was “did not change”. Further, the “change in the crystalline form” value in series [3] was “no change in the crystalline form”. In series [4], the “chemical stability” value is given as “good chemical stability”.

On to `CC(C)N1Cc2cc(C(F)(F)F)ncc2-c2cnc(NCc3c(F)ccc4c3CCO4)n3cnc(c23)C1=O` [crystalline form A of the compound of formula I], for which, in series [2], the “hygroscopic weight gain (DVS)” value is 0.44% and the “hygroscopicity (DVS), in words” value is “slight hygroscopicity”. Besides, in series [3], the “change in the crystalline form” value is “no change in the crystalline form”. The “chemical stability” value in series [4] is “good chemical stability”.

Regarding `CC(C)N1Cc2cc(C(F)(F)F)ncc2-c2cnc(NCc3c(F)ccc4c3CCO4)n3cnc(c23)C1=O.O=S(=O)(O)O` [Sulfate Crystalline form A], in series [2], the “Evaluation results: hygroscopicity” value was “Slight hygroscopicity”.

Regarding `CC(C)N1Cc2cc(C(F)(F)F)ncc2-c2cnc(NCc3c(F)ccc4c3CCO4)n3cnc(c23)C1=O.Cl` [Crystalline form A of hydrochloride salt], the “TRS(%)” value in series [4] (setting [5]) is listed as 0.30%; in series [4] (setting [6]), 0.28%; in series [4] (setting [7]), 0.28%; in series [4] (60° C.-5 d, open storage), 0.28%; in series [4] (60° C.-10 d, open storage) it was 0.34%; in series [4] (60° C.-30 d, open storage), 0.27%. For the same molecule, the “TRS(%)” value is reported as 0.31% in series [4] (setting [8]); 0.26% in series [4] (RT/75% RH 7 d, open storage); 0.26% in series [4] (RT/75% RH 10 d, open storage); 0.37% in series [4] (RT/75% RH 30 d, open storage); 0.28% in series [4] (RT/90RH %-5 d, open storage); 0.26% in series [4] (RT/90RH %-10 d, open storage). Besides, the “TRS(%)” value in series [4] (RT/90RH %-30 d, open storage) amounted to 0.27%.

For the molecule `CC(C)N1Cc2cc(C(F)(F)F)ncc2-c2cnc(NCc3c(F)ccc4c3CCO4)n3cnc(c23)C1=O` [crystalline form A of the methanesulfonate salt of the compo], in series [2], the “hygroscopic weight gain (DVS)” value was 0.84%; the “hygroscopicity (DVS), in words” value is recorded as “slight hygroscopicity”; the “crystalline form before and after hygroscopic test (XRPD after DVS)” value is “did not change”. For the same molecule, the “change in the crystalline form” value in series [3] is reported as “no change in the crystalline form”.

Consider `CC(C)N1Cc2cc(C(F)(F)F)ncc2-c2cnc(NCc3c(F)ccc4c3CCO4)n3cnc(c23)C1=O` [Crystalline form B], for which the “Evaluation results: stability” value in series [3] (summary of forms) is “Good stability”. The “TRS(%)” value was determined as 0.54% in series [4] (setting [5]); 0.46% in series [4] (setting [6]); 0.56% in series [4] (setting [7]); 0.52% in series [4] (60° C.-5 d, open storage); 0.53% in series [4] (60° C.-10 d, open storage); 0.62% in series [4] (60° C.-30 d, open storage). Besides, the “TRS(%)” value in series [4] (setting [8]) is reported as 0.89%; in series [4] (RT/90RH %-5 d, open storage), 0.55%; in series [4] (RT/90RH %-10 d, open storage), 0.56%; in series [4] (RT/90RH %-30 d, open storage), 0.58%. Besides, in series [1], the “Evaluation results: crystallinity” value was “high crystallinity”.
